Assay results taken from ChEMBL document CHEMBL1123035, “Synthesis and LSD-like discriminative stimulus properties in a series of N(6)-alkyl norlysergic acid N,N-diethylamide derivatives” (J Med Chem, 1985).

Experiments:
Rattus norvegicus [1] = organism: Rattus norvegicus; experiment: Effective dose at which 50% of the rats tested selected the LSD-appropriate lever was reported; 0.010-0.041; assay type: functional
Rattus norvegicus [2] = experiment: Number of rats scored LSD correct/number tested was reported at a dose of 23.0 nM/Kg using 2-lever drug discrimination assay; 3/8; assay type: functional
Rattus norvegicus [3] = experiment: Number of rats scored LSD correct/number tested was reported at a dose of 5.75 nM/Kg using 2-lever drug discrimination assay; 2/8; assay type: functional
Rattus norvegicus [4] = experiment: Number of rats scored LSD correct/number tested was reported at a dose of 46.5 nM/Kg using 2-lever drug discrimination assay; 5/8; assay type: functional
Rattus norvegicus [5] = experiment: Number of rats scored LSD correct/number tested was reported at a dose of 11.5 nM/Kg using 2-lever drug discrimination assay; 3/8; assay type: functional
Rattus norvegicus [6] = organism: Rattus norvegicus; experiment: Potency ratio was obtained using a 3 point x 3 point parallel-line bioassay for quantal data and reflects the potency relative to LSD; 2.63-1.00; assay type: functional
Rattus norvegicus [7] = experiment: Number of rats scored LSD correct/number tested was reported at a dose of 93 nM/Kg using 2-lever drug discrimination assay; 8/8; assay type: functional
Rattus norvegicus [8] = organism: Rattus norvegicus; experiment: Effective dose at which 50% of the rats tested selected the LSD-appropriate lever was reported; 0.052-0.186; assay type: functional
Rattus norvegicus [9] = experiment: Number of rats scored LSD correct/number tested was reported at a dose of 46.5 nM/Kg using 2-lever drug discrimination assay; 2/8; assay type: functional
Rattus norvegicus [10] = experiment: Number of rats scored LSD correct/number tested was reported at a dose of 93 nM/kg using 2-lever drug discrimination assay; 3/8; assay type: functional
Rattus norvegicus [11] = experiment: Number of rats scored LSD correct/number tested was reported at a dose of 185.5 nM/Kg using 2-lever drug discrimination assay; 5/8; assay type: functional
Rattus norvegicus [12] = experiment: Number of rats scored LSD correct/number tested was reported at a dose of 23 nM/Kg using 2-lever drug discrimination assay; 1/8; assay type: functional
Rattus norvegicus [13] = experiment: Number of rats scored LSD correct/number tested was reported at a dose of 371 nM/kg using 2-lever drug discrimination assay; 8/8; assay type: functional
Rattus norvegicus [14] = organism: Rattus norvegicus; experiment: Potency ratio was obtained using a 3 point x 3 point parallel-line bioassay for quantal data and reflects the potency relative to LSD; 0.66-0.25; assay type: functional
Rattus norvegicus [15] = experiment: Number of rats scored LSD correct/number tested was reported at a dose of 3.710 uM/kg using 2-lever drug discrimination assay; complete generalisation did not occur at the highest dose used; assay type: ADME, organism-based; details: in vivo
Rattus norvegicus [16] = organism: Rattus norvegicus; experiment: Effective dose at which 50% of the rats tested selected the LSD-appropriate lever was reported; 0.019-0.071; assay type: functional
Rattus norvegicus [17] = experiment: Number of rats scored LSD correct/number tested was reported at a dose of 185 nM/kg using 2-lever drug discrimination assay; 8/8; assay type: functional
Rattus norvegicus [18] = experiment: Number of rats scored LSD correct/number tested was reported at a dose of 23 nM/Kg using 2-lever drug discrimination assay; 2/8; assay type: functional
Rattus norvegicus [19] = experiment: Number of rats scored LSD correct/number tested was reported at a dose of 11.5 nM/Kg using 2-lever drug discrimination assay; 2/8; assay type: functional
Rattus norvegicus [20] = experiment: Number of rats scored LSD correct/number tested was reported at a dose of 46.5 nM/Kg using 2-lever drug discrimination assay; 4/8; assay type: functional
Rattus norvegicus [21] = organism: Rattus norvegicus; experiment: Potency ratio was obtained using a 3 point x 3 point parallel-line bioassay for quantal data and reflects the potency relative to LSD; 1.62-0.62; assay type: functional
Rattus norvegicus [22] = experiment: Number of rats scored LSD correct/number tested was reported at a dose of 93 nM/Kg using 2-lever drug discrimination assay; 6/8; assay type: functional
Rattus norvegicus [23] = experiment: Number of rats scored LSD correct/number tested was reported at a dose of 185.5 nM/Kg using 2-lever drug discrimination assay; 8/8; assay type: functional
Rattus norvegicus [24] = organism: Rattus norvegicus; experiment: Potency ratio was obtained using a 3 point x 3 point parallel-line bioassay for quantal data and reflects the potency relative to LSD; assay type: functional
Rattus norvegicus [25] = organism: Rattus norvegicus; experiment: Effective dose at which 50% of the rats tested selected the LSD-appropriate lever was reported; 0.029-0.072; assay type: functional
Rattus norvegicus [26] = experiment: Number of rats scored LSD correct/number tested was reported at a dose of 93.0 nM/Kg using 2-lever drug discrimination assay; 6/8; assay type: functional
Rattus norvegicus [27] = experiment: Number of rats scored LSD correct/number tested was reported at a dose of 11.5 nM/Kg using 2-lever drug discrimination assay; 0/8; assay type: functional
Rattus norvegicus [28] = experiment: Number of rats scored LSD correct/number tested was reported at a dose of 0.742 uM/kg using 2-lever drug discrimination assay; complete generalisation did not occur at the highest dose used; assay type: ADME, organism-based; details: in vivo
Rattus norvegicus [29] = experiment: Number of rats scored LSD correct/number tested was reported at a dose of 5.75 nM/kg using 2-lever drug discrimination assay; 3/8; assay type: functional
Rattus norvegicus [30] = organism: Rattus norvegicus; experiment: Potency ratio was obtained using a 3 point x 3 point parallel-line bioassay for quantal data and reflects the potency relative to LSD; 3.27-1.24; assay type: functional
Rattus norvegicus [31] = organism: Rattus norvegicus; experiment: Effective dose at which 50% of the rats tested selected the LSD-appropriate lever was reported; 0.006-0.027; assay type: functional
Rattus norvegicus [32] = experiment: Number of rats scored LSD correct/number tested was reported at a dose of 46.5 nM/kg using 2-lever drug discrimination assay; 6/8; assay type: functional
Rattus norvegicus [33] = experiment: Number of rats scored LSD correct/number tested was reported at a dose of 23 nM/kg using 2-lever drug discrimination assay; 4/8; assay type: functional
Rattus norvegicus [34] = experiment: Number of rats scored LSD correct/number tested was reported at a dose of 11.5 nM/kg using 2-lever drug discrimination assay; 4/8; assay type: functional
Rattus norvegicus [35] = experiment: Number of rats scored LSD correct/number tested was reported at a dose of 93 nM/kg using 2-lever drug discrimination assay; 8/8; assay type: functional
Rattus norvegicus [36] = experiment: Number of rats scored LSD correct/number tested was reported at a dose of 46.5 nM/kg using 2-lever drug discrimination assay; 0/8; assay type: functional
Rattus norvegicus [37] = experiment: Number of rats scored LSD correct/number tested was reported at a dose of 371 nM/kg using 2-lever drug discrimination assay; 3/8; assay type: functional
Rattus norvegicus [38] = organism: Rattus norvegicus; experiment: Effective dose at which 50% of the rats tested selected the LSD-appropriate lever was reported; 0.209-0.610; assay type: functional
Rattus norvegicus [39] = organism: Rattus norvegicus; experiment: Potency ratio was obtained using a 3 point x 3 point parallel-line bioassay for quantal data and reflects the potency relative to LSD; 0.21-0.08; assay type: functional
Rattus norvegicus [40] = experiment: Number of rats scored LSD correct/number tested was reported at a dose of 185.5 nM/kg using 2-lever drug discrimination assay; 1/8; assay type: functional
Rattus norvegicus [41] = experiment: Number of rats scored LSD correct/number tested was reported at a dose of 93 nM/kg using 2-lever drug discrimination assay; 1/8; assay type: functional
Rattus norvegicus [42] = experiment: Number of rats scored LSD correct/number tested was reported at a dose of 742 nM/kg using 2-lever drug discrimination assay; 7/8; assay type: functional

## CCN(CC)C(=O)[C@@H]1C=C2c3cccc4[nH]cc(c34)C[C@H]2N(CC)C1
Rattus norvegicus [1]
  ED50: 0.02 µg/kg
Rattus norvegicus [2]
  Activity: 3
Rattus norvegicus [3]
  Activity: 2
Rattus norvegicus [4]
  Activity: 5
Rattus norvegicus [5]
  Activity: 3
Rattus norvegicus [6]
  Potency ratio: 1.63
Rattus norvegicus [7]
  Activity: 8

## CCN(CC)C(=O)[C@@H]1C=C2c3cccc4[nH]cc(c34)C[C@H]2N(C(C)C)C1
Rattus norvegicus [8]
  ED50: 0.1 µg/kg
Rattus norvegicus [9]
  Activity: 2
Rattus norvegicus [10]
  Activity: 3
Rattus norvegicus [11]
  Activity: 5
Rattus norvegicus [12]
  Activity: 1
Rattus norvegicus [13]
  Activity: 8
Rattus norvegicus [14]
  Potency ratio: 0.41

## CCN(CC)C(=O)[C@@H]1C=C2c3cccc4[nH]cc(c34)C[C@H]2NC1
Rattus norvegicus [15]
  Activity: 50%

## CCCN1C[C@H](C(=O)N(CC)CC)C=C2c3cccc4[nH]cc(c34)C[C@H]21
Rattus norvegicus [16]
  ED50: 0.037 µg/kg
Rattus norvegicus [17]
  Activity: 8
Rattus norvegicus [18]
  Activity: 2
Rattus norvegicus [19]
  Activity: 2
Rattus norvegicus [20]
  Activity: 4
Rattus norvegicus [21]
  Potency ratio: 1
Rattus norvegicus [22]
  Activity: 6

## CCN(CC)C(=O)[C@@H]1C=C2c3cccc4[nH]cc(c34)C[C@H]2N(C)C1 [LYSERGIDE]
Rattus norvegicus [23]
  Activity: 8
Rattus norvegicus [24]
  Potency ratio: 1
Rattus norvegicus [18]
  Activity: 2
Rattus norvegicus [20]
  Activity: 4
Rattus norvegicus [25]
  ED50: 0.046 µg/kg
Rattus norvegicus [26]
  Activity: 6
Rattus norvegicus [27]
  Activity: 0

## CCN(CC)C(=O)[C@@H]1C=C2c3cccc4[nH]cc(c34)C[C@H]2N(CCc2ccccc2)C1
Rattus norvegicus [28]
  Activity: 25%

## C=CCN1C[C@H](C(=O)N(CC)CC)C=C2c3cccc4[nH]cc(c34)C[C@H]21
Rattus norvegicus [29]
  Activity: 3
Rattus norvegicus [30]
  Potency ratio: 2.01
Rattus norvegicus [31]
  ED50: 0.013 µmol/kg
Rattus norvegicus [32]
  Activity: 6
Rattus norvegicus [33]
  Activity: 4
Rattus norvegicus [34]
  Activity: 4
Rattus norvegicus [35]
  Activity: 8

## CCCCN1C[C@H](C(=O)N(CC)CC)C=C2c3cccc4[nH]cc(c34)C[C@H]21
Rattus norvegicus [36]
  Activity: 0
Rattus norvegicus [37]
  Activity: 3
Rattus norvegicus [38]
  ED50: 0.357 µg/kg
Rattus norvegicus [39]
  Potency ratio: 0.13
Rattus norvegicus [40]
  Activity: 1
Rattus norvegicus [41]
  Activity: 1
Rattus norvegicus [42]
  Activity: 7
